# Assay results from the supplement of paper PMC10307832.
# Tests used:
# Assay in all cases: relative viability (nuclei count vs DMSO), 5 days (fraction); higher = more cells survive
# CAL-12T = tested on: CAL-12T
# How it was run: (§1)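 Nuclei were stained with Hoechst during a one-step fixation (final 0.05% Triton X-100, 1% formaldehyde, 1 ug/ml Hoechst) carried out 5 days after dosing, then counted on 4× images. The cells, lung cancer lines in 1536-well plates, had been dosed by pin tool the day after seeding with one drug alone or a fixed anchor-drug dose plus five library-drug doses (not always all listed) in √10 steps. Relative viability is the nuclei count in treated wells divided by that in vehicle wells, and each value is the median of duplicate plates.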
# LCLC-103H = tested on: LCLC-103H
# How it was run: as §1
# HCC-366 = tested on: HCC-366
# How it was run: as §1
# SW 1573 = tested on: SW 1573
# How it was run: as §1
# HOP-62 = tested on: HOP-62
# How it was run: as §1
# NCI-H1355 = tested on: NCI-H1355
# How it was run: as §1
# COR-L 105 = tested on: COR-L 105
# How it was run: as §1
# HCC-827 = tested on: HCC-827
# How it was run: as §1
# NCI-H727 = tested on: NCI-H727
# How it was run: as §1
# NCI-H1755 = tested on: NCI-H1755
# How it was run: as §1
# A-427 = tested on: A-427
# How it was run: as §1
# NCI-H2009 = tested on: NCI-H2009
# How it was run: as §1
# NCI-H23 = tested on: NCI-H23
# How it was run: as §1
# EMC-BAC-2 = tested on: EMC-BAC-2
# How it was run: as §1
# NCI-H522 = tested on: NCI-H522
# How it was run: as §1
# NCI-H2228 = tested on: NCI-H2228
# How it was run: as §1
# NCI-H1915 = tested on: NCI-H1915
# How it was run: as §1
# NCI-H1437 = tested on: NCI-H1437
# How it was run: as §1
# NCI-H1395 = tested on: NCI-H1395
# How it was run: as §1
# SK-LU-1 = tested on: SK-LU-1
# How it was run: as §1
# NCI-H460 = tested on: NCI-H460
# How it was run: as §1
# NCI-H1975 = tested on: NCI-H1975
# How it was run: as §1
# HARA = tested on: HARA
# How it was run: as §1
structure (smiles),measurement,setting,value
COc1cc(N2CCC(C(N)=O)CC2)ccc1Nc1nc(N)c(Cl)c(Nc2ccccc2S(=O)(=O)C(C)C)n1 [HG-5-88-01] + Cc1cc(Nc2cc(N3CCN(C)CC3)nc(Sc3ccc(NC(=O)C4CC4)cc3)n2)n[nH]1 [Tozasertib] (partner 0.1 µM),relative viability,CAL-12T; first compound 0.04 µM,0.274
same,relative viability,CAL-12T; first compound 0.1265 µM,0.359
same,relative viability,CAL-12T; first compound 0.4 µM,0.289
same,relative viability,CAL-12T; first compound 1.265 µM,0.199
same,relative viability,CAL-12T; first compound 4 µM,0.243
same,relative viability,LCLC-103H; first compound 0.04 µM,0.483
same,relative viability,LCLC-103H; first compound 0.1265 µM,0.511
same,relative viability,LCLC-103H; first compound 0.4 µM,0.386
same,relative viability,LCLC-103H; first compound 1.265 µM,0.611
same,relative viability,LCLC-103H; first compound 4 µM,0.345
same,relative viability,HCC-366; first compound 0.04 µM,0.169
same,relative viability,HCC-366; first compound 0.1265 µM,0.0937
same,relative viability,HCC-366; first compound 0.4 µM,0.0774
same,relative viability,HCC-366; first compound 1.265 µM,0.0436
same,relative viability,HCC-366; first compound 4 µM,0.0402
same,relative viability,SW 1573; first compound 0.04 µM,0.169
same,relative viability,SW 1573; first compound 0.1265 µM,0.128
same,relative viability,SW 1573; first compound 0.4 µM,0.166
same,relative viability,SW 1573; first compound 1.265 µM,0.157
same,relative viability,SW 1573; first compound 4 µM,0.162
same,relative viability,HOP-62; first compound 0.04 µM,0.357
same,relative viability,HOP-62; first compound 0.1265 µM,0.359
same,relative viability,HOP-62; first compound 0.4 µM,0.307
same,relative viability,HOP-62; first compound 1.265 µM,0.327
same,relative viability,HOP-62; first compound 4 µM,0.334
same,relative viability,NCI-H1355; first compound 0.04 µM,0.601
same,relative viability,NCI-H1355; first compound 0.1265 µM,0.545
same,relative viability,NCI-H1355; first compound 0.4 µM,0.493
same,relative viability,NCI-H1355; first compound 1.265 µM,0.454
same,relative viability,NCI-H1355; first compound 4 µM,0.342
same,relative viability,COR-L 105; first compound 0.04 µM,0.377
same,relative viability,COR-L 105; first compound 0.1265 µM,0.379
same,relative viability,COR-L 105; first compound 0.4 µM,0.317
same,relative viability,COR-L 105; first compound 1.265 µM,0.312
same,relative viability,COR-L 105; first compound 4 µM,0.42
same,relative viability,HCC-827; first compound 0.04 µM,0.475
same,relative viability,HCC-827; first compound 0.1265 µM,0.439
same,relative viability,HCC-827; first compound 0.4 µM,0.401
same,relative viability,HCC-827; first compound 1.265 µM,0.346
same,relative viability,HCC-827; first compound 4 µM,0.263
same,relative viability,NCI-H727; first compound 0.04 µM,0.594
same,relative viability,NCI-H727; first compound 0.1265 µM,0.665
same,relative viability,NCI-H727; first compound 0.4 µM,0.582
same,relative viability,NCI-H727; first compound 1.265 µM,0.429
same,relative viability,NCI-H727; first compound 4 µM,0.429
same,relative viability,NCI-H1755; first compound 0.04 µM,0.602
same,relative viability,NCI-H1755; first compound 0.1265 µM,0.589
same,relative viability,NCI-H1755; first compound 0.4 µM,0.587
same,relative viability,NCI-H1755; first compound 1.265 µM,0.512
same,relative viability,NCI-H1755; first compound 4 µM,0.495
same,relative viability,A-427; first compound 0.04 µM,0.193
same,relative viability,A-427; first compound 0.1265 µM,0.208
same,relative viability,A-427; first compound 0.4 µM,0.158
same,relative viability,A-427; first compound 1.265 µM,0.184
same,relative viability,A-427; first compound 4 µM,0.18
same,relative viability,NCI-H2009; first compound 0.04 µM,0.734
same,relative viability,NCI-H2009; first compound 0.1265 µM,0.753
same,relative viability,NCI-H2009; first compound 0.4 µM,0.611
same,relative viability,NCI-H2009; first compound 1.265 µM,0.578
same,relative viability,NCI-H2009; first compound 4 µM,0.451
same,relative viability,NCI-H23; first compound 0.04 µM,0.337
same,relative viability,NCI-H23; first compound 0.1265 µM,0.388
same,relative viability,NCI-H23; first compound 0.4 µM,0.32
same,relative viability,NCI-H23; first compound 1.265 µM,0.284
same,relative viability,NCI-H23; first compound 4 µM,0.251
same,relative viability,EMC-BAC-2; first compound 0.04 µM,0.296
same,relative viability,EMC-BAC-2; first compound 0.1265 µM,0.288
same,relative viability,EMC-BAC-2; first compound 0.4 µM,0.261
same,relative viability,EMC-BAC-2; first compound 1.265 µM,0.264
same,relative viability,EMC-BAC-2; first compound 4 µM,0.24
same,relative viability,NCI-H522; first compound 0.04 µM,0.567
same,relative viability,NCI-H522; first compound 0.1265 µM,0.454
same,relative viability,NCI-H522; first compound 0.4 µM,0.584
same,relative viability,NCI-H522; first compound 1.265 µM,0.57
same,relative viability,NCI-H522; first compound 4 µM,0.454
same,relative viability,NCI-H2228; first compound 0.04 µM,0.259
same,relative viability,NCI-H2228; first compound 0.1265 µM,0.13
same,relative viability,NCI-H2228; first compound 0.4 µM,0.159
same,relative viability,NCI-H2228; first compound 1.265 µM,0.111
same,relative viability,NCI-H2228; first compound 4 µM,0.133
same,relative viability,NCI-H1915; first compound 0.04 µM,0.402
same,relative viability,NCI-H1915; first compound 0.1265 µM,0.436
same,relative viability,NCI-H1915; first compound 0.4 µM,0.453
same,relative viability,NCI-H1915; first compound 1.265 µM,0.429
same,relative viability,NCI-H1915; first compound 4 µM,0.339
same,relative viability,NCI-H1437; first compound 0.04 µM,0.409
same,relative viability,NCI-H1437; first compound 0.1265 µM,0.398
same,relative viability,NCI-H1437; first compound 0.4 µM,0.356
same,relative viability,NCI-H1437; first compound 1.265 µM,0.301
same,relative viability,NCI-H1437; first compound 4 µM,0.316
same,relative viability,NCI-H1395; first compound 0.04 µM,0.79
same,relative viability,NCI-H1395; first compound 0.1265 µM,0.692
same,relative viability,NCI-H1395; first compound 0.4 µM,0.859
same,relative viability,NCI-H1395; first compound 1.265 µM,0.716
same,relative viability,NCI-H1395; first compound 4 µM,0.65
same,relative viability,SK-LU-1; first compound 0.04 µM,0.337
same,relative viability,SK-LU-1; first compound 0.1265 µM,0.311
same,relative viability,SK-LU-1; first compound 0.4 µM,0.298
same,relative viability,SK-LU-1; first compound 1.265 µM,0.228
same,relative viability,SK-LU-1; first compound 4 µM,0.189
same,relative viability,NCI-H460; first compound 0.04 µM,0.722
same,relative viability,NCI-H460; first compound 0.1265 µM,0.423
same,relative viability,NCI-H460; first compound 0.4 µM,0.255
same,relative viability,NCI-H460; first compound 1.265 µM,0.0498
same,relative viability,NCI-H460; first compound 4 µM,0.064
same,relative viability,NCI-H1975; first compound 0.04 µM,0.815
same,relative viability,NCI-H1975; first compound 0.1265 µM,0.715
same,relative viability,NCI-H1975; first compound 0.4 µM,0.565
same,relative viability,NCI-H1975; first compound 1.265 µM,0.251
same,relative viability,NCI-H1975; first compound 4 µM,0.143
same,relative viability,HARA; first compound 0.04 µM,0.108
same,relative viability,HARA; first compound 0.1265 µM,0.132
same,relative viability,HARA; first compound 0.4 µM,0.0858
same,relative viability,HARA; first compound 1.265 µM,0.099
same,relative viability,HARA; first compound 4 µM,0.0727
